Data as given in patent US11376308B2, “Use of FKBP-L polypeptides and nucleic acids for the treatment of obesity” (The Queen's University of Belfast, priority 2016, dated 2022).
Entries after “also recorded” stand apart in the source; their conditions may differ.

Legend:
[1] = system: IL-1β; assay: LPS-induced IL-1β secretion in THP-1 monocytes (ELISA); type: cell-based; conditions: 1000 ng/ml LPS, conditioned medium 24 h later
Protocol: FIG. 13 illustrates the FKBP-L peptide, AD-01, abrogates LPS-induced activation of IL-1β in THP-1 monocytes—Cells were stimulated with 1000 ng of LPS.
(§1) THP1 cells were treated with 100 ng/ml LPS and cell lysates harvested and subjected to western blotting as described in Example 4, using primary antibody against pSER36 NFkB (at a 1:1000 dilution) and a 1:5000 dilution of ECL anti rabbit IgG HRP linked whole secondary antibody (GE Healthcare UK Ltd.). To measure IL-1β levels THP1 cells were treated with 1000 ng/ml LPS±AD-01 and conditioned cell culture medium was collected 24 h later and assessed using an IL-1β ELISA.

[2] = system: NFkB; assay: LPS-induced NFkB phosphorylation in THP-1 monocytes (western blot); type: cell-based; conditions: 100 ng/ml LPS, lysates 6 hour after treatment
Protocol: FIG. 12 illustrates the FKBP-L peptide, AD-01 (SEQ ID NO: 10), abrogates LPS-induced activation of NFkB in THP-1 monocytes—Cells were stimulated with 100 ng of LPS which results in activation of NFkB phosphorylation.
as §1

[3] = system: IL-8; assay: Ray Biotech cytokine array on spent medium of MDA231 cells, validated by ELISA: IL-8; type: cell-based; conditions: spent medium of MDA231 cells after exposure to ALM201
Description: (§2) FIGS. 7A and 7B illustrate the level of secretion of leptin, IL8 and TIMP Secretion after treatment with FKBP-L's therapeutic peptide, ALM201—A Ray Biotech cytokine array was used to measure cytokines in the spent medium of MDA231 cells after exposure to ALM201. Blots were then quantitated by densitometric analysis using Ray Biotech software.
(§3) A Ray Biotech cytokine array was used to measure cytokines in the spent medium of MDA231 cells after exposure to ALM201. Blots were then quantitated by densitometric analysis using Ray Biotech software. IL8 and TIMP1 levels were then validated by ELISA in two or three independent repeats. A reduction in these cytokines would reduce the obesity phenotype.

[4] = system: leptin; assay: Ray Biotech cytokine array on spent medium of MDA231 cells: leptin; type: cell-based; conditions: spent medium of MDA231 cells after exposure to ALM201
Description: as §2, §3

[5] = system: SIRT1; assay: SIRT1 protein levels following ALM201 treatment (western blot); type: cell-based; conditions: FIG. 6D
Protocol: For assessing protein levels: Cell lysates were prepared in RIPA buffer from MDA-MB-231, A3, MCF-7 and D2 cells and subjected to Western Blotting. The membrane was then probed with a 1:1000 dilution of rabbit FKBP-L IgG polyclonal primary antibody (Proteintech UK, cat: 10060-1-AP), 1:1000 rabbit SIRT1 IgG monoclonal primary antibody (Abcam, UK cat: ab32441) in 3% blocking solution overnight on a rocker at 4° C. The membrane was washed with PBS-Tween and then PBS for 5 min each, and was probed for an hour with a 1:5000 dilution of ECL anti rabbit IgG HRP linked whole secondary antibody (GE Healthcare UK Ltd.) Membranes were washed and developed as in section 2.2.2.11.3. Membranes were then stripped with Restore™ Western Blot Stripping Buffer (Thermo Scientific) for 10 min, washed, re-probed with rabbit GAPDH primary antibody (Sigma-Aldrich), and a 1:5000 dilution of ECL anti rabbit IgG HRP linked whole secondary antibody (GE Healthcare UK Ltd.) and developed as above. SIRT1 was identified as a band around 110 kDa, FKBP-L at 42 kDa.

[6] = High fat diet weight gain study in Fkbpl+/- and Fkbpl+/+ mice, ALM201 vs PBS; type: in vivo; conditions: ALM201 0.3 mg/kg subcutaneously 5 days per week
Description: (§4) For the high fat diet study, 40 age and sex matched mice were chosen with an age range of 6-10 weeks at the experimental start date. Mice were randomised into four groups: PBS Fkbpl^+/−, PBS Fkbpl^+/+, ALM201 Fkbpl^+/− and ALM201 Fkbpl^+/+. Power calculations were utilised to predict the number of mice needed to show statistical significance. Taking group 1 mean weight to be 25 g and group 2 mean weight to be 45 g, with a standard deviation of 13 gives a sample size of eight mice per group when powered to 0.8, with α=0.05. 10 mice per treatment group were used. All mice were weighed at experimental start date, biweekly for the first three weeks to ensure health, and weekly thereafter. Mice were solely fed a high fat diet comprising 60% fat (Cat no. F3282, Dates and, USA). Food provided was weighed biweekly for three weeks, then weekly, to ensure equal food provisions between boxes, with an allowance of 5 g per mouse per day assumed. ALM201 was reconstituted in PBS, stored at −20° C., and injected subcutaneously at a dose of 0.3 mg/kg, 5 days per week.

[7] = system: TIMP1; assay: Ray Biotech cytokine array on spent medium of MDA231 cells, validated by ELISA: TIMP1; type: cell-based; conditions: spent medium of MDA231 cells after exposure to ALM201
Description: as §2, §3

[8] = Oral Glucose Tolerance Test (OGTT) in high fat diet fed mice given ALM201; type: in vivo
Protocol: An OGTT was performed by fasting the mice for 4 h, taking baseline blood glucose, administering 40% D-glucose, and recording two further blood glucose readings at 30 and 60 min.
as §4

| Substance | LPS-induced IL-1β secretion [1] | LPS-induced activation of NFkB (phosphorylation) [2] | secreted IL-8 levels [3] | secreted leptin levels [4] | SIRT1 protein levels [5] | weight gain ([6]; Fkbpl+/- mice, 0.3 mg/kg) | weight gain ([6]; wild-type (Fkbpl+/+) mice) | secreted TIMP1 levels [7] | blood glucose / glucose intolerance (OGTT) ([8]; Fkbpl+/- mice given ALM201 vs Fkbpl+/- mice given PBS, readings at 30 and 60 min after 40% glucose) | difference in blood glucose levels between Fkbpl+/- and Fkbpl+/+ mice (OGTT) ([8]; both genotypes administered ALM201) |
| --- | --- | --- | --- | --- | --- | --- | --- | --- | --- | --- |
| NH2-QIRQQPRDPPTETLELEVSPDPAS-OH (H-QIRQQPRDPPTETLELEVSPDPAS-OH) [AD-01] | dramatic reduction; also recorded: significantly abrogated | inhibit; also recorded: abrogated that increase | – | – | – | – | – | – | – | – |
| NH2-IRQQPRDPPTETLELEVSPDPAS-OH (H-IRQQPRDPPTETLELEVSPDPAS-OH) [ALM201] | – | – | reduce | reduce | increased SIRT1 levels | significantly reduced; also recorded: normalises the mouse weight gain; also recorded: reduces and normalises weight gain | partially prevented weight gain | reduce | significantly reduced; also recorded: significantly lower blood glucose readings | no significant difference |
